Data set [1] has as its target T1, human topoisomerase II (Homo sapiens, UniProt P11388).
T1 construct: Topo II was purified from late log phase suspension cultures of HeLa WIS; endogenous in cells; host or cells: HeLa WIS suspension cultures, late log phase (enzyme purified from the cells)
Put plainly: Mammalian Topoisomerase II Inhibition Assay (DNA-topo II complex formation). Format: biochemical. The settings on record: EC50 = concentration with activity equal to EC50 of reference mAMSA; read-out: TopoII Inh. EC50. As for the experimental part: Mammalian Topoisomerase II Inhibition Assay Procedure
The assay quantitates the amount of topo II covalently complexed by DNA at equilibrium during a topo II reaction. This assay determines the potential of a compound to stabilize this complex, which potential is closely related to the cytotoxicity of the compound.
Assays (in duplicate) were assembled at 4° C.
4 ng 3' end labeled (^32 P) pBR322 DNA (10^7 DMP/μg)
The assay mix including the test compound was incubated for 20 minutes at 37° C. The reaction was terminated at 37° C. by the addition of 3 μl 10% SDS followed by the addition of 266 μl 10 mM Tris-Cl pH 7.5, 20 μg/ml BSA, 20 μg/ml calf thymus DNA, 1% SDS.
A SDS/protein precipitate was formed by the addition of 28 μl 2.5M KCl followed by chilling on ice for a minimum of 10 minutes. The precipitate was collected and washed with a Brandell cell harvester on a GFB glass fiber filter membrane as follows. The contents of the assay tube were drawn up into the harvester. The tube was then rinsed 7X with 10 mM Tris-Cl pH 7.5, 1 mM EDTA and 100 mM KCl. […] After drying, CPM was determined by liquid scintillation counting with 5 ml Biofluor (NEN Research Products) or Readisafe (Beckman Instruments Inc.) cocktail.
This solution then was diluted 1/5 into water and serially thereafter in either 0.02N sodium hydroxide or 0.04N hydrogen chloride, respectively. The stock solution and serial dilution of the test compound was stored at -20° C. prior to testing.
Screening of test compound--As an initial screen, the test compound was tested at a final concentration of 2, 20 and 200 μg/ml. The compound was then retested at a range of concentrations (usually 2-3X steps) bridging their approximate EC50 's, as estimated by the prescreen.
Controls--A solvent control which indicates the base level of topo II-DNA complex formed in the absence of the test compound was included in each test. A control, in which topo II was omitted, was included for each test compound at the highest drug concentration tested.
Reference Agent--A dose response curve with mAMSA at 0.01, 0.08, 0.16, 0.32, 1.0 and 10 μg/ml was included in each test.
The maximal DNA-topo II complex formed is taken as that equal to that formed at the nearly saturating dose of mAMSA (10 μg/ml).

A short description of data set [2]: In vivo antitumor assay, Colo38(sc). Set-up: species or system mouse. Conditions: mouse, in vivo, drug route iv, Ex 26 qd 3-5 bid 6-11, Ex 30 and 33 qd 3-11. From the text: (§1) Mice: Inbred: C3H/He and NCR-nu; and Hybrids: B6D2Fl (C57BL/6 females X DBA/2 males, CD2Fl (Balb/c females X DBS/2 males) and B6x C3fl (C57BL/6 x C3H) were bred at Wayne State University from strained obtained from the Frederick Cancer Research Facility, Frederick, Md. or purchased from commercial suppliers.
(§2) Tumors: Murine Tumor: P388 and an adriamycin-resistant (ADR) subline P388/ADR leukemia and the following transplantable solid tumors of mice were used for in Vivo testing: B16 melanoma (B16), pancreatic ductal adenocarcinoma No. 03 (Panc 03), colon adenocarcinoma No. 38 (colo 38), mammary ductal adenocarcinoma No. 16/C (Mam16) and an adriamycin-resistantsubline Mam16C/ADR. Human tumor: A single human tumor, mammary carcinoma MX-1 (MX1) was used for in vivo testing. All tumors are in the Developmental Therapeutics Program frozen tumor respository, maintained by the Biological Testing Branch, Frederick Md. Each has a detailed description, code identification number, and list of references at the National Tumor Repository. Murine tumors were maintained in the mouse strain of origin and were transplanted in the appropriate F1 hydrid (or the strain of origin) for therapy trials. Human mammary carcinoma MX-1 MX1) was maintained as a subcutaneous implant in either athymic Swiss (Cr: NIH(S)-nu) or athymic random bred (NCR-nu) mice and transplanted in NCR-nu for therapy trials.
(§3) Chemotherapy: For pancreatic ductal adenocarcinoma No. 3, colon adenocarcinoma No. 38 (colo38), lung carcinoma No. 12 (LC12) and both adriamycin-sensitive (RP) and -resistant ADR) mammary ductal adenocarcinoma No. 16 (Mam16) tumors, the following methods were used to help ensure a more uniform tumor burden per mouse (thus reducing the requirement for greater numbers of mice per group), bilateral tumor implants were used. The animals necessary to begin an experiment were pooled, implanted bilaterally s.c. on day zero with 30-60-mg tumor fragments using a 12-gauge trocar, and again pooled before randomization to the various treatment and control groups. Chemotherapy was started within three days after tumor implantation while the number of cells per mouse was relatively small (1×10^7 […]).
(§4) Quantitative end points used assess antitumor activity included % Increased Life Span (% ILS), Tumor Cell Kill (Log10 kill), and Tumor Growth Inhibition (T/C). Long Term Survivors (45 or 60 day) were excluded from calculations of % ILS and Tumor Cell Kill.
(§5) Tumors were measured with a caliper once or twice weekly (as needed) until either tumors exceeded 1600 mg or cure was assured. Tumor weights were estimated from two-dimensional measurements: Tumor Weight (mg)=(a×b^2) / 2, where a and b are the tumor length and width (nun) respectively. Measurements were carried out simultaneously in both treatment and control groups. When the control group tumors reached approximately 750-1500 mg in size (median of group), the median tumor weight of each group was determined (including zeros). The T/C value in percent is an indiation of antitumor effectiveness. The % T/C was calculated from the following formula for solid murine tumor models: [formula] where T and C are median tumor weights of the treatment and control groups, respectively. A T/C equal to or less than 42% is considered significant antitumor activity. A T/C value <10% is indicative of a high degree of antitumor activity and is the level used by National Cancer Institute to justify further development if other requirements are met (termed DN-2 level activity). By convention the T/C value for the mammary carcinoma MX-1 models is calculated by the parameter of change in tumor weight. The % T/C was calculated from the following formula for MX-1 models [formula] where ΔT and ΔC are the change in mean tumor weight of the test and control groups, respectively, and T (initial) is the initial mean tumor weight of the test group. […] A reproducible % T/C ≤10 is considered significant activity.

Data set [3] concerns colon adenocarcinoma No. 38 (colo 38). Put plainly: In vivo antitumor assay, Colo38(sc). The settings on record: drug route iv, Ex 26 qd 3-5 bid 6-11, Ex 30 and 33 qd 3-11. Set-up: species or system mouse.
From the text: as §1, §2, §3, §4, §5

T1 sequence (P11388 whole entry): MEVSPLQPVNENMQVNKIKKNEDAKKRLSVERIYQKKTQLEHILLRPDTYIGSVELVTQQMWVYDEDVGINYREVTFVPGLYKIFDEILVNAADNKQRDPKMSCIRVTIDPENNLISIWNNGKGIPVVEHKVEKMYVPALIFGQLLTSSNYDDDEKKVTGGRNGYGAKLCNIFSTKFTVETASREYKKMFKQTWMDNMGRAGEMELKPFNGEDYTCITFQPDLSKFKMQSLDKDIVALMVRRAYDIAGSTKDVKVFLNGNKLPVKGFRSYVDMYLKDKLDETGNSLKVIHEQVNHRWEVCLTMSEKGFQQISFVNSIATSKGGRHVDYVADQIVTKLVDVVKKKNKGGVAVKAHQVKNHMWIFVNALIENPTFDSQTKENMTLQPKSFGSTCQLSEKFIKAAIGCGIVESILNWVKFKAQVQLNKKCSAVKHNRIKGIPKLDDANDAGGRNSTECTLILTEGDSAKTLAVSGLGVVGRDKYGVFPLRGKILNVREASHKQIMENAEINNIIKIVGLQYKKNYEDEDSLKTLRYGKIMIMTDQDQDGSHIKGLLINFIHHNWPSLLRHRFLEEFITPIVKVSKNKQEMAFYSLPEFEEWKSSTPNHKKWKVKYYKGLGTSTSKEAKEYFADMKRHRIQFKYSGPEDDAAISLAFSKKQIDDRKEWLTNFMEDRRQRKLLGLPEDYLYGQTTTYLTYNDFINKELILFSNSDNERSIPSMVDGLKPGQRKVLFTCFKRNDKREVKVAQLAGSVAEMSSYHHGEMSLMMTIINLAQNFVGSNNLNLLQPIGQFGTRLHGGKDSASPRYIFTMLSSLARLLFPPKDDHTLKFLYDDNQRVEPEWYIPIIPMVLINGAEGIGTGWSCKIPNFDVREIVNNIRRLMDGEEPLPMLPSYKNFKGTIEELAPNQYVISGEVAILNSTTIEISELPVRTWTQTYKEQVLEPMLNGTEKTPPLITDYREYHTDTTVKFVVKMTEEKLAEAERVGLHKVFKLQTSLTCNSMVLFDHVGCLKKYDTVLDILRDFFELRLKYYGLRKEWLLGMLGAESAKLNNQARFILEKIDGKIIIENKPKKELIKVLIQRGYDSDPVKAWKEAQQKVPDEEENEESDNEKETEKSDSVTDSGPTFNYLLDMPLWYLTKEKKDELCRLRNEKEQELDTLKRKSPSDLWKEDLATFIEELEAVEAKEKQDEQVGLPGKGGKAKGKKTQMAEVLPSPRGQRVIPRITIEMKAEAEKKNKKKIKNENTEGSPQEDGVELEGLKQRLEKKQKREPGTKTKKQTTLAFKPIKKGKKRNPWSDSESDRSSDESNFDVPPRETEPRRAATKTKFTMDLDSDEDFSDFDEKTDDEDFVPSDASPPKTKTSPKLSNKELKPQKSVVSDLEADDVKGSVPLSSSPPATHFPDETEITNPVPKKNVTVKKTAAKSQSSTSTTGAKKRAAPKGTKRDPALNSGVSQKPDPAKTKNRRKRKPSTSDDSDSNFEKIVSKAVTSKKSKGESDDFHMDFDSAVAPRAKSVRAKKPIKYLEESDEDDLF

For the compound `Cc1cc(-c2c(F)cc3c(=O)c(Cc4c(O)cccc4O)cn(C4CC4)c3c2F)cc(C)n1` [Example 26, 1-Cyclopropyl-6,8-difluoro-7-[2,6-dimethyl-4-pyridinyl]-3-[2,6-dihydroxyphenylmethyl]-1,4-dihydroquinoline-4-one], the EC50 in data set [1] stood at 96 nM. Moreover, in data set [2], the MTD is 30 mg/kg. The same compound displayed a T/C % in data set [3] of 46%.
On to `Cc1cc(-c2c(F)cc3c(=O)c(Cc4ccccc4O)cn(C4CC4)c3c2F)cc(C)n1` [Example 30], for which, in data set [1], the concentration for a half-maximal effect (EC50) was 330 nM. For the same compound, in data set [2], the MTD turned out to be 148 mg/kg. In addition, in data set [3], the T/C % stood at 42%.
For the compound `Cc1cc(-c2c(F)cc3c(=O)c(Cc4ccc(O)cc4O)cn(C4CC4)c3c2F)cc(C)n1` [Example 33], in data set [2], the MTD amounted to 33 mg/kg. In data set [3], this compound showed a T/C % of over 100%.
